Results taken from the NIST ThermoML archive (doi:10.1007/s10765-007-0346-0).

Assay: xn = mol fraction of the nth substance listed
Details: 101 kPa, Liquid, Capillary tube (Ostwald / Ubbelohde) method

CCC(C)CC [3-methylpentane] + CCCCOCCCC
kinematic viscosity [m2/s]
Details | 283.15 K | 298.15 K | 313.15 K
x2 = 0.0498 | 5.151e-07 | 4.505e-07 | 4.026e-07
x2 = 0.1011 | 5.383e-07 | 4.655e-07 | 4.176e-07
x2 = 0.1884 | 5.796e-07 | 4.975e-07 | 4.427e-07
x2 = 0.2989 | 6.32e-07 | 5.415e-07 | 4.712e-07
x2 = 0.4033 | 6.843e-07 | 5.846e-07 | 5.031e-07
x2 = 0.4999 | 7.344e-07 | 6.244e-07 | 5.374e-07
x2 = 0.5992 | 7.877e-07 | 6.669e-07 | 5.73e-07
x2 = 0.7016 | 8.46e-07 | 7.116e-07 | 6.088e-07
x2 = 0.799 | 9.03e-07 | 7.548e-07 | 6.442e-07
x2 = 0.9001 | 9.657e-07 | 8.021e-07 | 6.804e-07
x2 = 0.9496 | 9.979e-07 | 8.257e-07 | 6.992e-07

CC(C)OC(C)C [diisopropyl ether] + CCCCCC
kinematic viscosity [m2/s]
Details | 283.15 K | 298.15 K | 313.15 K
x1 = 0.0523 | 5.094e-07 | 4.477e-07 | 4.011e-07
x1 = 0.0915 | 5.076e-07 | 4.467e-07 | 3.994e-07
x1 = 0.189 | 5.031e-07 | 4.446e-07 | 3.961e-07
x1 = 0.3016 | 4.99e-07 | 4.426e-07 | 3.929e-07
x1 = 0.398 | 4.963e-07 | 4.409e-07 | 3.907e-07
x1 = 0.4998 | 4.944e-07 | 4.397e-07 | 3.889e-07
x1 = 0.6007 | 4.931e-07 | 4.383e-07 | 3.874e-07
x1 = 0.6975 | 4.932e-07 | 4.381e-07 | 3.866e-07
x1 = 0.7976 | 4.934e-07 | 4.381e-07 | 3.859e-07
x1 = 0.8959 | 4.945e-07 | 4.386e-07 | 3.856e-07
x1 = 0.9432 | 4.953e-07 | 4.385e-07 | 3.86e-07

CCCCCCC [heptane] + CC(C)OC(C)C
x2 = 0
Details | kinematic viscosity [m2/s]
283.15 K | 6.697e-07
298.15 K | 5.754e-07
313.15 K | 4.986e-07

COC(C)(C)C [2-methoxy-2-methylpropane] + CCCCCC
kinematic viscosity [m2/s]
Details | 283.15 K | 298.15 K | 313.15 K
x1 = 0.0479 | 5.097e-07 | 4.478e-07 | 4.017e-07
x1 = 0.0974 | 5.074e-07 | 4.465e-07 | 3.994e-07
x1 = 0.1983 | 5.034e-07 | 4.442e-07 | 3.96e-07
x1 = 0.2988 | 5.004e-07 | 4.427e-07 | 3.932e-07
x1 = 0.3979 | 4.99e-07 | 4.418e-07 | 3.91e-07
x1 = 0.4975 | 4.99e-07 | 4.413e-07 | 3.897e-07
x1 = 0.5974 | 4.996e-07 | 4.419e-07 | 3.895e-07
x1 = 0.6968 | 5.025e-07 | 4.431e-07 | 3.895e-07
x1 = 0.7911 | 5.059e-07 | 4.45e-07 | 3.913e-07
x1 = 0.8976 | 5.125e-07 | 4.484e-07 | 3.926e-07
x1 = 0.9486 | 5.147e-07 | 4.505e-07 | 3.94e-07

CCC(C)CC [3-methylpentane] + COC(C)(C)C
kinematic viscosity [m2/s]
Details | 283.15 K | 298.15 K | 313.15 K
x2 = 0.048 | 4.915e-07 | 4.361e-07 | 3.87e-07
x2 = 0.0967 | 4.906e-07 | 4.357e-07 | 3.859e-07
x2 = 0.1961 | 4.893e-07 | 4.348e-07 | 3.843e-07
x2 = 0.2982 | 4.895e-07 | 4.347e-07 | 3.836e-07
x2 = 0.3995 | 4.906e-07 | 4.351e-07 | 3.834e-07
x2 = 0.4983 | 4.923e-07 | 4.361e-07 | 3.836e-07
x2 = 0.5992 | 4.954e-07 | 4.379e-07 | 3.85e-07
x2 = 0.6984 | 4.995e-07 | 4.406e-07 | 3.863e-07
x2 = 0.7978 | 5.048e-07 | 4.435e-07 | 3.888e-07
x2 = 0.8996 | 5.113e-07 | 4.478e-07 | 3.918e-07
x2 = 0.9491 | 5.145e-07 | 4.502e-07 | 3.937e-07
